From patent US20220125778A1 (priority 2019, published 2022)

The compounds below were run against Purified bacterial β-glucuronidases (Purified GUS) (UniProt P05804). Details: read-out: Purified GUS Orignial IC50.
Purified bacterial β-glucuronidases (Purified GUS), sequence (P05804 whole entry): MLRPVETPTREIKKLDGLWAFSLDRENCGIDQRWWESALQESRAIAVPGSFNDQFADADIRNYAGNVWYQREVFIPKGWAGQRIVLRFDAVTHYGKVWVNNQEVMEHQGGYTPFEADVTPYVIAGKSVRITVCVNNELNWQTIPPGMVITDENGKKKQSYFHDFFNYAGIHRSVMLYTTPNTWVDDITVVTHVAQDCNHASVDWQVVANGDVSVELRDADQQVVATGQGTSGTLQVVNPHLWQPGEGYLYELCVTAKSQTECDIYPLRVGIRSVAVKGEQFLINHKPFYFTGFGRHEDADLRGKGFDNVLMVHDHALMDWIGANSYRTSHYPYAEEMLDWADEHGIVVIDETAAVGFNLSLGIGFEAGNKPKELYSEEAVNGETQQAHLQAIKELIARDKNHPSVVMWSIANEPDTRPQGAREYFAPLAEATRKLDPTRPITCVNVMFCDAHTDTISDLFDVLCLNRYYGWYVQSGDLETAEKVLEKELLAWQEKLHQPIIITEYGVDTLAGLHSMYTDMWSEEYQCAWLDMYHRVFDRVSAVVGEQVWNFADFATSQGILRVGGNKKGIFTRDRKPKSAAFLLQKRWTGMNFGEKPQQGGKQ
Format: biochemical
`Cc1cc(C)c2[nH]c(=O)c(CN(CCO)C(=O)Cc3ccccc3Cl)cc2c1` [Ex. 8, 2-(2-chlorophenyl)-N-[(6,8-dimethyl-2-oxo-1H-quinolin-3-yl)methyl]-N-(2-hydroxyethyl)acetamide] showed an IC50 of 570 nM.
Work on `Cc1cc(C)c2[nH]c(=O)c(CN(CCO)C(=O)Cc3ccccc3Br)cc2c1` [Ex. 4, 2-(2-bromophenyl)-N-[(6,8-dimethyl-2-oxo-1H-quinolin-3-yl)methyl]-N-(2-hydroxyethyl)acetamide] yielded an IC50 of 920 nM.
With `COc1ccc(Br)c(CC(=O)N(CCO)Cc2cc3cc(C)cc(C)c3[nH]c2=O)c1` [Ex. 12, 2-(2-bromo-5-methoxy-phenyl)-N-[(6,8-dimethyl-2-oxo-1H-quinolin-3-yl)methyl]-N-(2-hydroxyethyl)acetamide] the IC50 was 580 nM.
